Measurements taken from patent US7026281B1, “Antagonistic analogs of GH-RH inhibiting IGF-I and -II” (The Administrators of the Tulane Educational Fund, priority 1998, dated 2006).
Marks after values point to notes of the source that are not given here.

Columns and labels:
[1] = system: mammary (MDA-MB-468, ZR-75-1), prostatic (PC-3 and DU-145), and pancreatic (MiaPaCa-2, SW-1990 and Capan-2) cancer cell lines; conditions: MDA-MB-468, ZR-75-1, PC-3, DU-145, MiaPaCa-2, SW-1990, Capan-2; cited from earlier work
[2] = system: IGF-II; conditions: same cancer cell lines in vitro; cited from earlier work
[3] = system: HT-29 human colon cancers; test: HT-29 human colon cancer xenografts in nude mice; type: in vivo; conditions: 20 μg daily sc., 6 weeks; for Final tumor volume (mm^3) / Tumor weight: nude mice
Protocol: HT-29 human colon cancers were transplanted sc. into male nude mice. 19 days after transplantation, the mice were divided into groups of 10 animals each, and the treatment was started. The mice received single daily injections of various GH-RH antagonists sc. at 20 μg dose per day for 6 weeks. Tumors were measured regularly, and tumor volume was calculated. The mice were sacrificed at the end of experiment and tumor weights were measured.

[4] = system: Estrogen independent MXT mouse mammary tumors; test: MXT mouse mammary tumors in BDF mice; type: in vivo; conditions: 20 μg per day
Protocol: Estrogen independent MXT tumors were transplanted sc. to female BDF mice. One day after transplantation, the mice were divided into groups of 10 animals each, and the treatment was started. The mice in groups 1, 2, 3, and 4 received single injections daily of various GH-RH antagonists sc. at 20 μg dose per day for 18 days. In groups 5 and 6, the peptides were administered by Alzet osmotic pumps releasing a daily amount of 20 μg peptide. Tumors were measured regularly, and tumor volume was calculated. The mice were sacrificed on day 18 and tumor weights were measured.

[5] = system: PC-3 human prostate cancer xenografts; test: PC-3 human prostate cancer xenografts in nude mice; type: in vivo; conditions: 20 μg daily s.c., 21 days
Protocol: Male nude mice were implanted s.c. with 3 mm^3 pieces of PC-3 human hormone-independent prostate cancer tissue into both flanks. When tumors reached a volume of approx. 40–50 mm^3 the mice were divided into 3 experimental groups. The first and second groups were treated with peptides Peptide 3 and MZ-5-156, respectively, in single daily s.c. injections of 20 μg for 21 days, while the third group served as control. Tumor volumes were measured at weekly intervals, tumor weights were measured at the end of experiment.

[6] = system: MDA-MB-468 human breast cancer xenografts; test: MDA-MB-468 human breast cancer xenografts in nude mice; type: in vivo; conditions: 20 μg daily s.c., 5 weeks
Protocol: Nude mice bearing MDA-MB-468 hormone-independent human breast cancer xenografts were divided into groups of 10 animals each. The treated groups received single daily s.c. injections of 20 μg of GH-RH antagonists. One group was treated with Peptide 1, a second group was treated with MZ-5-156 for comparison. The control group was injected with the vehicle solvent. The treatment was continued for 5 weeks. Tumors were measured once a week and tumor volume was calculated. The mice were sacrificed at the end of experiment and tumor weights were measured.

Row | Substance | Rate of proliferation of cancer cell lines in vitro [1] | Expression of IGF-II mRNA in the cells and concentration of IGF-II secreted into the culture medium [2] | Inhibitory effect on HT-29 human colon cancers (in words) [3] | Final tumor volume (mm^3) [3] | Tumor weight [3] | Inhibitory effect on MXT mouse mammary cancers (in words) ([4]; 18 days) | Tumor volume (mm^3) On day 14 ([4]; single daily sc. injections) | Tumor volume (mm^3) On day 18 ([4]; single daily sc. injections) | Tumor weights ([4]; single daily sc. injections, day 18) | Number of surviving mice ([4]; single daily sc. injections, groups of 10) | Inhibition in tumor volume [5] | Inhibition in tumor weight [5] | Final tumor volume (mm^3) ([5]; nude mice) | Tumor weight ([5]; nude mice) | Final tumor volume (mm^3) ([6]; nude mice) | Tumor weight ([6]; nude mice) | Number of regressed tumors ([6]; groups of 10)
1 | [Ibu^0, Tyr^1, D-Arg^2, Abu^15, Nle^27]hGH-RH(1–28) Agm [MZ-4-71, reference compound] | significantly inhibited | reduced | only little nonsignificant effect | 1953 ± 400 mm^3 | 2189 ± 458 mg | – | – | – | – | – | – | – | – | – | – | – | –
2 | [PhAc^0, D-Arg^2, Abu^15, Nle^27]hGH-RH(1–28) Agm [MZ-5-156, reference compound] | significantly inhibited | reduced | equally strong inhibitory effect | 908 ± 195* mm^3 | 1012 ± 174 mg | significant inhibition of tumor growth | 2717 ± 773 mm^3 | 5368 ± 408* mm^3 | 4885 ± 480 mg | 4 | 52% | 46% | 148.9 ± 41 mm^3 | 104.3 ± 27.2 mg | 104.4 ± 32.2** mm^3 | 77.7 ± 31.7 mg | 3
